From ChEMBL document CHEMBL4421719, “Modulation of k2p channels” (2016) come the findings set out here.

Assay [1] concerns the target T1, Potassium channel subfamily K member 2 (Homo sapiens) (UniProt O95069).
T1 sequence (whole entry): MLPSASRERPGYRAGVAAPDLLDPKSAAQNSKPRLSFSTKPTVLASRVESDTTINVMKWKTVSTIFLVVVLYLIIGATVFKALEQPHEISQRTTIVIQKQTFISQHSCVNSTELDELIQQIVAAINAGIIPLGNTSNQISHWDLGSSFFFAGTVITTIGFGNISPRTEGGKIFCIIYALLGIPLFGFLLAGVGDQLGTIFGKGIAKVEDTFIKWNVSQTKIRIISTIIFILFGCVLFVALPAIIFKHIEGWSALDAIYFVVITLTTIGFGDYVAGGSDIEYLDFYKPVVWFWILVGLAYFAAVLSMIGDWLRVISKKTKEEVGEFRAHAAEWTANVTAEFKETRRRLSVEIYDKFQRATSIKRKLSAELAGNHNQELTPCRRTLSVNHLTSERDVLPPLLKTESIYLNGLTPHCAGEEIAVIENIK
Kind of assay: Inhibition of K2P2.1 (unknown origin) expressed in Xenopus oocytes assessed as effect on channel currents at -80 mV holding potential at 100 uM by two-electrode voltage clamp assay relative to control. The format is cell-based. (In general: In two-electrode clamp one electrode senses voltage and the other passes current.)

Assay [2] concerns the target T2, Potassium channel subfamily K member 2 (Homo sapiens, UniProt O95069).
T2 sequence (O95069 whole entry): T1 sequence (whole entry)
As to the kind of experiment: Inhibition of K2P2.1 (unknown origin) expressed in Xenopus oocytes assessed as effect on channel currents at -80 mV holding potential by two-electrode voltage clamp assay. Type of assay: cell-based.

Assay [3] has as its target T1, Potassium channel subfamily K member 2 (Homo sapiens). As to the kind of experiment: Inhibition of K2P2.1 (unknown origin) expressed in SGY1528 yeast cells assessed as inhibition of cell growth at 10 uM incubated for 24 hrs by alamar blue dye based assay relative to control.
The target is the same in assay [4]. As to the kind of experiment: Antagonist activity at K2P2.1 (unknown origin) expressed in Xenopus oocytes assessed as suppression of channel currents at 20 uM at -80 mV holding potential by two-electrode voltage clamp assay relative to control. The format is cell-based.
The target is the same in assay [5]. As to the kind of experiment: Activation of K2P2.1 (unknown origin) expressed in Xenopus oocytes assessed as effect on channel currents at +40 mV holding potential at 100 uM by two-electrode voltage clamp assay. The format is cell-based.
The species entered for a further assay is Homo sapiens. As to the kind of experiment: Selectivity index, ratio of IC50 for inhibition of Trk1p (unknown origin) expressed in SGY1528 yeast cells assessed as inhibition of cell growth by alamar blue dye based assay to IC50 for inhibition of K2P2.1 (unknown origin) expressed in SGY1528 yeast cells assessed as inhibition of cell growth by alamar blue dye based assay. In general terms: Alamar Blue is a resazurin reagent that responds to reducing activity.

The target in assay [6] is Potassium voltage-gated channel subfamily KQT member 2 (Homo sapiens) (UniProt O43526). As to the kind of experiment: Activation of Kv7.2 (unknown origin) expressed in Xenopus oocytes assessed as effect on channel currents at 100 uM at -80 mV holding potential by two-electrode voltage clamp assay relative to control. Type of assay: cell-based.
Assay [7] has as its target Potassium channel subfamily K member 3 (Homo sapiens) (UniProt O14649). As to the kind of experiment: Activation of K2P3.1 (unknown origin) expressed in Xenopus oocytes assessed as effect on channel currents at -80 mV holding potential by two-electrode voltage clamp assay relative to control. The format is cell-based.
Assay [8] deals with T1, Potassium channel subfamily K member 2 (Homo sapiens). As to the kind of experiment: Activation of K2P2.1 (unknown origin) expressed in Xenopus oocytes assessed as effect on channel currents at 500 uM at -80 mV holding potential by two-electrode voltage clamp assay. Type of assay: cell-based.
The target is the same in assay [9]. As to the kind of experiment: Reversible activation of K2P2.1 (unknown origin) expressed in Xenopus oocytes assessed as effect on channel currents at 100 uM at -80 mV holding potential by two-electrode voltage clamp assay relative to control. Type of assay: cell-based.
Assay [10] has the same target. Kind of assay: Activation of K2P2.1 (unknown origin) expressed in Xenopus oocytes assessed as effect on channel currents at +40 mV holding potential at 400 uM by two-electrode voltage clamp assay. The format is cell-based.
For assay [11] the target is unchanged. Kind of assay: Activation of K2P2.1 (unknown origin) expressed in Xenopus oocytes assessed as effect on channel currents at 200 uM at -80 mV holding potential by two-electrode voltage clamp assay. Type of assay: cell-based.
Assay [12] shares this target. As to the kind of experiment: Activation of K2P2.1 (unknown origin) expressed in Xenopus oocytes assessed as effect on channel currents at -80 mV holding by two-electrode voltage clamp assay relative to control. The format is cell-based.
Assay [13] has as its target Potassium voltage-gated channel subfamily KQT member 2 (Homo sapiens) (UniProt O43526). Kind of assay: Activation of Kv7.2 (unknown origin) expressed in Xenopus oocytes assessed as effect on channel currents at 500 uM at -80 mV holding potential by two-electrode voltage clamp assay relative to control. The format is cell-based.
For assay [14], the target named is T3, Potassium channel subfamily K member 10 (Homo sapiens) (UniProt P57789).
T3 sequence (whole entry): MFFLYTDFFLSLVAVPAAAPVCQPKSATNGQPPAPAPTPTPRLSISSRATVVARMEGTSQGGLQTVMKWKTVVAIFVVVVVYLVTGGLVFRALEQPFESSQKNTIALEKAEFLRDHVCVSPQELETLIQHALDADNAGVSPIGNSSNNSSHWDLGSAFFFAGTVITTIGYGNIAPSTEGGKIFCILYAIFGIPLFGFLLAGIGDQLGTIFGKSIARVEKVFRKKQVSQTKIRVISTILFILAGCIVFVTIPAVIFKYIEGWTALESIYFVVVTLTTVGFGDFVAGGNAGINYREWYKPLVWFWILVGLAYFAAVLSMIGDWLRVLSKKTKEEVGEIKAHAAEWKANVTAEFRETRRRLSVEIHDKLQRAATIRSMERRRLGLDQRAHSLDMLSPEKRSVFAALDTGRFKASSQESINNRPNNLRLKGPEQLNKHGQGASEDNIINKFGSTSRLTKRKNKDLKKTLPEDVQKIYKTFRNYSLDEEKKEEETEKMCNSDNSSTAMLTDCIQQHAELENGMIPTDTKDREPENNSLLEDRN
As to the kind of experiment: Activation of K2P10.1 (unknown origin) expressed in Xenopus oocytes assessed as effect on channel currents at 500 uM at -80 mV holding potential by two-electrode voltage clamp assay. The format is cell-based.

The target of assay [15] is Potassium voltage-gated channel subfamily KQT member 2 (Homo sapiens) (UniProt O43526). As to the kind of experiment: Activation of Kv7.2 (unknown origin) expressed in Xenopus oocytes assessed as effect on channel currents at -80 mV holding potential by two-electrode voltage clamp assay relative to control. The format is cell-based.
The target of assay [16] is T4, Potassium channel subfamily K member 10 (Homo sapiens, UniProt P57789).
T4 sequence (P57789 whole entry): T3 sequence (whole entry)
Kind of assay: Activation of K2P10.1 (unknown origin) expressed in Xenopus oocytes assessed as effect on channel currents at -80 mV holding potential by two-electrode voltage clamp assay. The format is cell-based.

The target of assay [17] is Potassium channel subfamily K member 3 (Homo sapiens) (UniProt O14649). As to the kind of experiment: Activation of K2P3.1 (unknown origin) expressed in Xenopus oocytes assessed as effect on channel currents at -80 mV holding potential at 500 uM by two-electrode voltage clamp assay relative to control. Type of assay: cell-based.

For orientation: inhibition means the percentage by which the read-out fell short of the control. A word on the IC50: it is the concentration that inhibits the measured activity by half. The term EC50 denotes the concentration giving half of the maximal effect.

Calls of active or inactive are those of the source. The rule behind the calls is not given here.

Chain of Potassium voltage-gated channel subfamily KQT member 2 (Homo sapiens) (O43526 whole entry): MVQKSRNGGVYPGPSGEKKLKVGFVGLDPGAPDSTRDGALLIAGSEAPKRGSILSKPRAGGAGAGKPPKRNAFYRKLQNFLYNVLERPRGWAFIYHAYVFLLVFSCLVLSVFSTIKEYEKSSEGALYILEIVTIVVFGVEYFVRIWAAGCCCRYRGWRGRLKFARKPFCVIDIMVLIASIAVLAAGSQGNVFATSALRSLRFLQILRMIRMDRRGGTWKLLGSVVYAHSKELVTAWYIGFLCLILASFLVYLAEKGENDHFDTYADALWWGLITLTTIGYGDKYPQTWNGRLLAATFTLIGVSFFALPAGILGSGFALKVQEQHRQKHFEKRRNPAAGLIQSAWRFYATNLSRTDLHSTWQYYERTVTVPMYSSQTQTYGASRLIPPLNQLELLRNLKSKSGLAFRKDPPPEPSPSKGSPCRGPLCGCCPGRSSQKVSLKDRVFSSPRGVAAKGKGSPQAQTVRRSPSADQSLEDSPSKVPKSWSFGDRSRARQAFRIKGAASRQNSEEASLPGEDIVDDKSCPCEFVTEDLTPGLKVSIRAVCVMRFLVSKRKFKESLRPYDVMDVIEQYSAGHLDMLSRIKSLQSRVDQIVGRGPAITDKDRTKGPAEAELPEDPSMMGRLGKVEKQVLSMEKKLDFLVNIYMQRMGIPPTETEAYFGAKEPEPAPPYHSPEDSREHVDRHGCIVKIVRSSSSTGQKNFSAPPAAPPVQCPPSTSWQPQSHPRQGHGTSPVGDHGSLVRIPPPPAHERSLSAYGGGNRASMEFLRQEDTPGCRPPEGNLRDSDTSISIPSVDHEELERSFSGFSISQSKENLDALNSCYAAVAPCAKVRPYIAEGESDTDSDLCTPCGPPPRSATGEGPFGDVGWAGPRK
Chain of Potassium channel subfamily K member 3 (Homo sapiens) (O14649 whole entry, looked up): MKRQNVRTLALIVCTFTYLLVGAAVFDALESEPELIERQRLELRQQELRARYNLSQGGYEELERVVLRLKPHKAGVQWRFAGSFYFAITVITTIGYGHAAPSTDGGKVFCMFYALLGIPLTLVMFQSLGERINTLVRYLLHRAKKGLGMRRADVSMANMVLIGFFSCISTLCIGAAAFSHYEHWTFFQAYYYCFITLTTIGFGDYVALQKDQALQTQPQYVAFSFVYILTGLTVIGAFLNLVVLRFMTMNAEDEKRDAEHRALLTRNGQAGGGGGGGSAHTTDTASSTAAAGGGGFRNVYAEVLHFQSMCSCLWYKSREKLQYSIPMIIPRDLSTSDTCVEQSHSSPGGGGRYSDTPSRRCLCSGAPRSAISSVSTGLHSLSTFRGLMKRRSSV

On to `Cc1cccc(-n2ncc3c(NCCc4ccccc4)ncnc32)c1`, for which the inhibition amounted to 70% in [1] and 30% in assay [4]. For the same compound, the IC50 in [2] stood at 21 µM. In addition, the growth inhibition (GI) in assay [3] came to 66%. In addition, the outcome in assay [5] was Active. In the assay filed under Homo sapiens, the Ratio IC50 is less than 2.

With `O=C(O)CCn1c2ccc(Cl)cc2c2cc(Cl)ccc21`, the outcome in [6], in assay [7] and in assay [15] was inactive. Moreover, the result in assay [8], in assay [10] and in assay [11] was Active. Also, the fold change (FC) in assay [9] was less than 11. Besides, the Emax stood at 11 in assay [12], 1.8 in [13], 10.1 in [14] and 1.2 in assay [17]. Besides, the growth inhibition (GI) in assay [3] is 66%. In assay [16], the EC50 was no less than 250 µM. Also, the Ratio IC50 in the assay filed under Homo sapiens was less than 2.
